Consider 7 compounds from patent US20060148796A1, “6-Substituted imidazopyrazines” (priority 2003, published 2006).

The first series deals with pentagastrin-stimulated acid secretion of the perfused rat stomach. The series can be described thus: Secretion-inhibiting action on the perfused rat stomach (pentagastrin-stimulated acid secretion, intraduodenal administration in vivo). Conditions: dose 1 μmol/kg i.d., perfused stomach of anesthetized CD rat, female. The source says: Testing of the Secretion-Inhibiting Action on the Perfused Rat Stomach
In Table A which follows, the influence of the compounds according to the invention on the pentagastrin-stimulated add secretion of the perfused rat stomach after intraduodenal administration in vivo is shown.
The abdomen of anesthetized rats (CD rat, female, 200-250 g; 1.5 g/kg Im. urethane) was opened after tracheotomy by a median upper abdominal incision and a PVC catheter was fixed transorally in the esophagus and another via the pylorus such that the ends of the tubes just projected into the gastric lumen. The catheter leading from the pylorus led outward into the right abdominal wall through a side opening.
After thorough rinsing (about 50-100 ml), warm (37° C.) physiological NaCl solution was continuously passed through the stomach (0.5 ml/min, pH 6.8-6.9; Braun-Unita I). The pH (pH meter 632, glass electrode EA 147; φ=5 mm, Metrohm) and, by titration with a freshly prepared 0.01N NaOH solution to pH 7 (Dosimat 665 Metrohm), the secreted HCl were determined in the effluent in each case collected at an interval of 15 minutes.
The gastric secretion was stimulated by continuous infusion of […] (=1.65 ml/h) of i.v. pentagastrin (left femoral vein) about 30 min after the end of the operation (.e. after determination of 2 preliminary fractions). […]
Consider `CCc1cccc(C)c1CNc1nc(COC)cn2c(C)c(C)nc12.Cl` [Example 13, 8-(2-Ethyl-6-methyl-benzylamino)-6-(methoxymethyl)-2,3-dimethyl-imidazo[1,2-a]pyrazine hydrochloride], for which the “Inhibition of acid secretion (%)” value came to 46%. Take `CCc1cccc(C)c1CNc1nc(C(=O)N(C)C)cn2c(C)c(C)nc12` [Example 5, 6-(Dimethylaminocarbonyl)-8-(2-ethyl-6-methyl-benzylamino)-2,3-dimethyl-imidazo[1,2a]-pyrazine]: the “Inhibition of acid secretion (%)” value came out at 49%.

Tested on in a further series: not given
Assay: not given
Conditions: not given
As for `CCc1cccc(C)c1CNc1nc(Br)cn2c(C)c(C)nc12.O=C(O)C(=O)O` [Example 3, 6-Bromo-8(2-ethyl-6-methyl-benzylamino)-2,3-dimethyl-imidazo[1,2-a]pyrazine oxalate], the melting point amounted to 163 °C. In turn, `CCc1cccc(C)c1CNc1nc(COC)cn2c(C)c(C)nc12.Cl` [Example 13, 8-(2-Ethyl-6-methyl-benzylamino)-6-(methoxymethyl)-2,3-dimethyl-imidazo[1,2-a]pyrazine hydrochloride] registered a melting point of 177 °C.

The compound `CCc1cccc(C)c1CNc1nc(CO)cn2c(C)c(C)nc12` [Example 12, 8-(2-Ethyl-6-methyl-benzylamino)-6-(hydroxymethyl)-2,3-dimethyl-imidazo[1,2-a]pyrazine] returned a melting point of 166 °C. On the same count and under the same terms, under `CCOC(=O)c1cn2c(C)c(C)nc2c(NCc2c(C)cccc2CC)n1` [Example 4, Ethyl 8-(2-ethyl-6-methyl-benzylamino)-2,3-dimethyl-imidazo[1,2-a]pyrazine-6-carboxylate] stands 144 °C; under `CCc1cccc(C)c1CNc1nc(C(=O)O)cn2c(C)c(C)nc12` [Example 6, 8-(2-Ethyl-6-methyl-benzylamino)-2,3-dimethyl-imidazo[1,2-a]pyrazine-6-carboxylic acid], 230 °C.

With `CCc1cccc(C)c1CNc1nc(C(=O)N2CCCC2)cn2c(C)c(C)nc12` [Example 7, 8-(2-Ethyl-6-methyl-benzylamino)-6-(pyrrolidinocarbonyl)-2,3-dimethyl-imidazo[1,2-a]pyrazine], the melting point amounted to 197 °C.
